{"source": "paper PMC4728560", "about": "(Scientific Reports, 2016)", "key": {"[1]": {"system": "Bcl-xL inhibition of cBidmt1/Bax", "assay": "In vitro reconstitution liposome permeabilization, cBidmt1/Bax with Bcl-xL", "assay_type": "biochemical", "settings": "ANTS/DPX liposomes, 100 nM Bax, 20 nM cBidmt1, pre-incubation pH 9, 45 min, 37 °C, 5 h, pH 7", "text": "This purified assay system measures direct interactions in which full-length untagged Bcl-xL inhibits permeabilization by binding full-length caspase 8 cleaved Bid (cBid) and/or full-length untagged Bax, thereby preventing Bax oligomerization in membranes. […] In these assays liposome permeabilization by activated Bax releases the entrapped fluorophore/quencher pair 8-aminonaphthalene-1,3,6-trisulfonic acid (ANTS)/p-xylene-bispyridinium (DPX), resulting in a measurable increase of fluorescence.\n(A–E) in vitro reconstitution assay on liposome permeabilization. […] The treated Bcl-xL was then added to reactions containing ANTS-DPX liposomes, 100 nM Bax and 20 nM of either cBid (A,B) or cBidmt1(C,D) at pH 7. Liposome permeabilization was quantified by fluorescence after 5h incubation at 37 °C where 100% release was defined as the fluorescence change due to lipid solubilization with 1% Triton X-100. […] Error bars, std. dev. n = 3. […] Cyto c extra-mito: in the supernatant, analysed by Western blot. […]\n(§1) Figure 10 A,B) or cBid mt1 (Supplementary Figure 10 C,D) at pH 7 to quantify the activity of Bcl-xL inhibition of liposome permeablization. […]\nthen added to reactions containing ANTS-DPX liposomes, 100nM Bax and 20nM of either c Bid (A, C) or cBid mt1(B, D) at pH 7 and liposome permeabilization was quantified by fluorescence […]"}, "[2]": {"system": "cBidmt1+Bax", "assay": "Control liposome permeabilization without Bcl-xL, cBidmt1+Bax", "assay_type": "biochemical", "settings": "320 nM pH9 treated TCTP, 100 nM Bax, 20 nM cBidmt1", "experimental": "(A–E) in vitro reconstitution assay on liposome permeabilization. […] The treated Bcl-xL was then added to reactions containing ANTS-DPX liposomes, 100 nM Bax and 20 nM of either cBid (A,B) or cBidmt1(C,D) at pH 7. Liposome permeabilization was quantified by fluorescence after 5h incubation at 37 °C where 100% release was defined as the fluorescence change due to lipid solubilization with 1% Triton X-100. […] Error bars, std. dev. n = 3. To compare between the TCTP treated groups and the Control group statistically, two-way ANOVA test was performed for (A–D) and one-way ANOVA test was performed for (E). […] Colored asterisks above each data point indicate the statistical significance (*p < 0.05; **p < 0.01, no asterisks if p ≥ 0.05). A complete statistical analysis is provided in Supplementary Table 2–4. (F) Permeabilization assays of mitochondrial membrane by tBid and Bax assessing cytochrome c release. […] Cyto c extra-mito: in the supernatant, analysed by Western blot. […]\nas §1\nthe Control group (No TCTP) were analyzed through Dunnett's multiple comparisons test at each sample condition (Bcl-XL concentration) for statistical significance. […]\nStatistical significance was analyzed through Dunnett's multiple comparisons test. […]"}}, "data": [{"substance": "TCTP: Translationally Controlled Tumor Protein (TCTP/tpt1), recombinant full-length", "values": [{"measurement": "effect on Bcl-xL inhibition of cBidmt1/Bax-mediated liposome permeabilization", "setting": "[1]", "value": "enhanced Bcl-xL inhibition"}, {"measurement": "effect on cBidmt1-Bax induced permeabilization not containing Bcl-xL", "setting": "[2]", "value": "no effect"}]}]}
